The results in this text go back to ChEMBL document CHEMBL1201862, “PubChem BioAssay data set” (2004).

Assay [1] has as its target T1, DNA repair protein RAD52 homolog (Homo sapiens, UniProt P43351).
T1 sequence (P43351 whole entry): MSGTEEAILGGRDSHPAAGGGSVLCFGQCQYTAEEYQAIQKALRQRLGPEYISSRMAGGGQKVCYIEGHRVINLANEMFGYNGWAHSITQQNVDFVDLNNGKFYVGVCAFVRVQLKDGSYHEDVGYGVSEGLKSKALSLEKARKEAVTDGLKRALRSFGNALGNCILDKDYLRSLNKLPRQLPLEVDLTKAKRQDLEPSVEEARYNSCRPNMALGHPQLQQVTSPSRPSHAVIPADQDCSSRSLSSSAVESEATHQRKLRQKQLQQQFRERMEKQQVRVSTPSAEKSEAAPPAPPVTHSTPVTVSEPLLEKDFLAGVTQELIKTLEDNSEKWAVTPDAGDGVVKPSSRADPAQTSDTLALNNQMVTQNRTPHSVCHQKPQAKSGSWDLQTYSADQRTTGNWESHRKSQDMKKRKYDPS
The assay is classed as functional, biochemical.

For assay [2], the target named is Prothrombin (Bos taurus, UniProt P00735). The assay can be described thus: thrombin protease inhibitors – biochemical, fluorescence polarization, uHTS hits, dose response (AID 602369). The assay is classed as functional. In general terms: Fluorescence polarisation rises when a labelled molecule tumbles more slowly, as on binding a larger partner.
Assay [3] in a line: cAMP pathway inhibition in counterscreen cell line – TR-FRET cAMP detection, counter-screen for MC4R biased antagonist project, dose response (AID 602305).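 Further: U2OS cells stimulated with forskolin near its EC80 as the cAMP inducer; potency is for inhibition of forskolin-stimulated cAMP signaling.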 In kind it is functional, cell-based. In general terms: A counterscreen serves to expose hits that act by an unwanted route or on another target.
In assay [4] the target is 26S proteasome non-ATPase regulatory subunit 14 (Homo sapiens, UniProt O00487). Nature of the assay: inhibition of proteasome subunit RPN11 – biochemical, fluorescence polarization, uHTS hits, confirmation (AID 602368). In kind it is functional.
Assay [5] has as its target T2, Melanocortin receptor 4 (Homo sapiens, UniProt P32245). The assay can be described thus: inhibitors of MC4R cAMP signaling – cell-based, TR-FRET, biased antagonists, dose response (AID 602298).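 Further: antagonist potency against agonist-stimulated cAMP production.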 In kind it is functional. For orientation: Time-resolved FRET reads energy transfer from a long-lived donor to a nearby acceptor.
The target of assay [6] is T2, Melanocortin receptor 4. The assay is classed as functional, cell-based.
Assay [7] can be described thus: viability loss in HeLa cells – cytotoxicity control for MgcRacGAP inhibitor project, dose response (AID 624300). The assay is classed as functional.
Assay [8] concerns the target 72 kDa type IV collagenase (Homo sapiens, UniProt P08253). Nature of the assay: Dose Response validation of uHTS RPN11 inhibitor hits using a MMP-2 Fluorescence assay. In kind it is functional.
Assay [9] deals with Heat shock protein HSP 90-alpha (Homo sapiens, UniProt P07900). In kind it is functional, organism-based.
Assay [10] concerns the target T3, Rac GTPase-activating protein 1 (Homo sapiens, UniProt Q9H0H5).
T3 sequence (Q9H0H5 whole entry): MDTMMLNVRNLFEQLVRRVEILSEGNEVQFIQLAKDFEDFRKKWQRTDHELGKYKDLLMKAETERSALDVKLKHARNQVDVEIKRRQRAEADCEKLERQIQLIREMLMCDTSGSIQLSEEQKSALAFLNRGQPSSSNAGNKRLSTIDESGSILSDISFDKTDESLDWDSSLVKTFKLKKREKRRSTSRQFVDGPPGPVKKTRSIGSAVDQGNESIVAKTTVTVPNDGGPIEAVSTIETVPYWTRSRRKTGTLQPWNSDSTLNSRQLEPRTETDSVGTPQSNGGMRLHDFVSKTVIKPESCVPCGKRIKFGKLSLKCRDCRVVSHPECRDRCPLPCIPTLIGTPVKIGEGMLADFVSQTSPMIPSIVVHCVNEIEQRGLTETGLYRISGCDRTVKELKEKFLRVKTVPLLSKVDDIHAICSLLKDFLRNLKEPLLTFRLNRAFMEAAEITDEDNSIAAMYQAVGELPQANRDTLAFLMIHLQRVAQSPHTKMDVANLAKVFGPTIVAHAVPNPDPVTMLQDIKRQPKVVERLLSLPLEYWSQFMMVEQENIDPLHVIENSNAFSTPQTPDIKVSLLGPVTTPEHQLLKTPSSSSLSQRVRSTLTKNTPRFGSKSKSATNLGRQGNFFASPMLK
Nature of the assay: blockers of MgcRacGAP-driven Rac1 GTP hydrolysis – biochemical, ADP Hunter fluorescence, primary and confirmatory, confirmation (AID 624330). The assay is classed as functional.

Assay [11] concerns the target T4, Sentrin-specific protease 8 (Homo sapiens, UniProt Q96LD8).
T4 sequence (Q96LD8 whole entry): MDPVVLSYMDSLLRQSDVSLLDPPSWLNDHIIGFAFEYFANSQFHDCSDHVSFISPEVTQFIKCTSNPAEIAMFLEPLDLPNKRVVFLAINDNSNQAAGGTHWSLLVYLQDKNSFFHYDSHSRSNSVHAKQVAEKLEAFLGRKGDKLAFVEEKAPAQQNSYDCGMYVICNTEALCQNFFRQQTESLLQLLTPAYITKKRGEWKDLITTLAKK
The assay can be described thus: inhibition of sentrin protease 8 – biochemical, luminescence, set 2, SAR follow-up (AID 588601). The assay is classed as functional.

For assay [12], the target named is T5, Sentrin-specific protease 7 (Homo sapiens, UniProt Q9BQF6).
T5 sequence (Q9BQF6 whole entry): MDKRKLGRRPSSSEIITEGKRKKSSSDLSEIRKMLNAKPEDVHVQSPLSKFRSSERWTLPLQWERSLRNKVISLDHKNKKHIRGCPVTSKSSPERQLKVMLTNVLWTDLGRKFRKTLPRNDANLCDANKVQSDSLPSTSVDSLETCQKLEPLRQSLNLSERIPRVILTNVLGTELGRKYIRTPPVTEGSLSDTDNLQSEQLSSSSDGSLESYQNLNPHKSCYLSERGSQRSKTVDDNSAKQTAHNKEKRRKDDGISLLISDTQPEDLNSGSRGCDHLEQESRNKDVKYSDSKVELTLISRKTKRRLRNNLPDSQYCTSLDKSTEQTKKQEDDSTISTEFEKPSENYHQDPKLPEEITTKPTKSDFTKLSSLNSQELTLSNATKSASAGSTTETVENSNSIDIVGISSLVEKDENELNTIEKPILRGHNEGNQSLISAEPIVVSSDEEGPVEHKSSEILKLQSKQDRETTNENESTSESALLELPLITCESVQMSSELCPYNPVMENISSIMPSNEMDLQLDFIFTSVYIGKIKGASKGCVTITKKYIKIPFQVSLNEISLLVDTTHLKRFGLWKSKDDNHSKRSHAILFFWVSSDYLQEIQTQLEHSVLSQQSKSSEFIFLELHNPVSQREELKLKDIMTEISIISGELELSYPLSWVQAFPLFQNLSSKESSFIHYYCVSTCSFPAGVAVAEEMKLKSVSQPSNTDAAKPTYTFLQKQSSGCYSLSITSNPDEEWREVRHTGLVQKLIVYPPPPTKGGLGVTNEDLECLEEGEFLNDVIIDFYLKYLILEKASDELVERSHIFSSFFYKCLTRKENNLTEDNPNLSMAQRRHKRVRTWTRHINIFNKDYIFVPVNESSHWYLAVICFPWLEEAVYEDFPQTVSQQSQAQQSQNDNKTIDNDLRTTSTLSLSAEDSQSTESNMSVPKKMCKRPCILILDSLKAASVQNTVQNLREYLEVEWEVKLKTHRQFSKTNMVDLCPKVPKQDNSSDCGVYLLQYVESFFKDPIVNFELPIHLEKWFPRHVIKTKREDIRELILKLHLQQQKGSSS
The assay can be described thus: inhibition of human SENP7 cleavage activity – biochemical, luminescence, set 2, SAR follow-up (AID 588600). The assay is classed as functional.

In assay [13] the target is T6, Sentrin-specific protease 6 (Homo sapiens, UniProt Q9GZR1).
T6 sequence (Q9GZR1 whole entry): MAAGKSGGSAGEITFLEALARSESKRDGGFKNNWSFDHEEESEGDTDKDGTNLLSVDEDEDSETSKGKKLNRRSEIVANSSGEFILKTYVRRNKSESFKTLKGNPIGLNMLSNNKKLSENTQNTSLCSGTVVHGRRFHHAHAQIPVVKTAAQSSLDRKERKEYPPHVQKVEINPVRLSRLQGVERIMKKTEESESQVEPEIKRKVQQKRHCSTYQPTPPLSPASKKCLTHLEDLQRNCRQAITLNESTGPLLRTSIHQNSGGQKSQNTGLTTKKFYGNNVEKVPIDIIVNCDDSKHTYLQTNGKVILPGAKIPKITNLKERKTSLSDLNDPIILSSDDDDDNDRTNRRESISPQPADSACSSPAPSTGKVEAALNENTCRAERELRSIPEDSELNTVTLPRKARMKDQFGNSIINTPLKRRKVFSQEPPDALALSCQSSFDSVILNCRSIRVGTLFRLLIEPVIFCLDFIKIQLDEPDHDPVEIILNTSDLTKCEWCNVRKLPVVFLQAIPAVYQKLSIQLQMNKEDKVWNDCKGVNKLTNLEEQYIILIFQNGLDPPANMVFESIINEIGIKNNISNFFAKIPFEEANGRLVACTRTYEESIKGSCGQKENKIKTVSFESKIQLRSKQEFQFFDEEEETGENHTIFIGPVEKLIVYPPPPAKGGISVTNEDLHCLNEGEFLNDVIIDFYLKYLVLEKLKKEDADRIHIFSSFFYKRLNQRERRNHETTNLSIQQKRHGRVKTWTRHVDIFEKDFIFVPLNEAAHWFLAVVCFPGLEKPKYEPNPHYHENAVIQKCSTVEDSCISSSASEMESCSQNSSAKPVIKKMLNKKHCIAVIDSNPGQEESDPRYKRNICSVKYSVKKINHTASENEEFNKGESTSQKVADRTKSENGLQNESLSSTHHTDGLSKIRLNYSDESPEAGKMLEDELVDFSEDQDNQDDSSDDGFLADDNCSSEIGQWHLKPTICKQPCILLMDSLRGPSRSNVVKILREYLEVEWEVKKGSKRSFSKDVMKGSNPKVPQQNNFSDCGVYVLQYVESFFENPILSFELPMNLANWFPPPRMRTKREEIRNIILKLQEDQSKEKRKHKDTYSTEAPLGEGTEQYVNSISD
The assay can be described thus: inhibition of human SENP6 catalytic domain – biochemical, luminescence, set 2, SAR follow-up (AID 588598). The assay is classed as functional.

For assay [14], the target named is T7, Caspase-3 (Homo sapiens, UniProt P42574).
T7 sequence (P42574 whole entry): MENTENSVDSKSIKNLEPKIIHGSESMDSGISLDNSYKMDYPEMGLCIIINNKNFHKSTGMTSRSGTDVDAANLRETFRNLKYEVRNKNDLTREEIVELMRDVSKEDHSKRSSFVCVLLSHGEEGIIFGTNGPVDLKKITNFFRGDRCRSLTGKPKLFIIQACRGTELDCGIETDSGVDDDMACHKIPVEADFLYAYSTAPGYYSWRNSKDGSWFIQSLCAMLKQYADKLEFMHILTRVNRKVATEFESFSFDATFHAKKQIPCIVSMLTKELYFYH
The assay can be described thus: inhibition of recombinant caspase-3 activity – biochemical, luminescence, set 2, selectivity assay for SENP protease inhibitor project, SAR follow-up (AID 588599). The assay is classed as functional.

A short description of assay [15]: blockers of CAL PDZ–TMR peptide complex – biochemical, fluorescence polarization, untagged CAL PDZ, cherry-pick, set 2, dose response (AID 602254). In kind it is functional.
The nature of assay [16]: Luminescence Cell-Based Dose Confirmation HTS to Identify Inhibitors of Platelet Dense Granule Release. [Related pubchem assays: 1663 (Primary HTS), 1678 (Summary of Project)]. In kind it is functional.
Assay [17] has as its target Luciferin 4-monooxygenase (Photinus pyralis, UniProt P08659). The assay can be described thus: inhibition of purified Photinus pyralis luciferase – biochemical, luminescence, dose response (AID 1891).

Calls of active or inactive are those of the source.

T2 sequence (P32245 whole entry): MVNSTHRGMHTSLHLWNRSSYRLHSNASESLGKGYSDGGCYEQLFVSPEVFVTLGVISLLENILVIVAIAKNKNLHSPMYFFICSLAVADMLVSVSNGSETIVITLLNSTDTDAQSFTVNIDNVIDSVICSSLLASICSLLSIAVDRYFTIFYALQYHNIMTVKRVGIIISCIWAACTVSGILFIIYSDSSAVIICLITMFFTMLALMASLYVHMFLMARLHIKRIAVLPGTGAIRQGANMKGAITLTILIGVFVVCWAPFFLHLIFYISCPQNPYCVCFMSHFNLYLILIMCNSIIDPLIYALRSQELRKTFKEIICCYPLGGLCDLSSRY
Chain of 26S proteasome non-ATPase regulatory subunit 14 (O00487 whole entry): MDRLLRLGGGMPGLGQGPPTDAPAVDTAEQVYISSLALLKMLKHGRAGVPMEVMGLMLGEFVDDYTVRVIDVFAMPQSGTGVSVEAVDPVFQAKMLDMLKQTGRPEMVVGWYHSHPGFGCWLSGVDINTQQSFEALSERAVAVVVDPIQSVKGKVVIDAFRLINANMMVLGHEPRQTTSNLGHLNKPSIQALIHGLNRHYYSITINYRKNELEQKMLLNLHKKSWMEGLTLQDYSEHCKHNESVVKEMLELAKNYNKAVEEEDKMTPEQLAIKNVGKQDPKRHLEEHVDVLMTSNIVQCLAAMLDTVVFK
Chain of Luciferin 4-monooxygenase (P08659 whole entry): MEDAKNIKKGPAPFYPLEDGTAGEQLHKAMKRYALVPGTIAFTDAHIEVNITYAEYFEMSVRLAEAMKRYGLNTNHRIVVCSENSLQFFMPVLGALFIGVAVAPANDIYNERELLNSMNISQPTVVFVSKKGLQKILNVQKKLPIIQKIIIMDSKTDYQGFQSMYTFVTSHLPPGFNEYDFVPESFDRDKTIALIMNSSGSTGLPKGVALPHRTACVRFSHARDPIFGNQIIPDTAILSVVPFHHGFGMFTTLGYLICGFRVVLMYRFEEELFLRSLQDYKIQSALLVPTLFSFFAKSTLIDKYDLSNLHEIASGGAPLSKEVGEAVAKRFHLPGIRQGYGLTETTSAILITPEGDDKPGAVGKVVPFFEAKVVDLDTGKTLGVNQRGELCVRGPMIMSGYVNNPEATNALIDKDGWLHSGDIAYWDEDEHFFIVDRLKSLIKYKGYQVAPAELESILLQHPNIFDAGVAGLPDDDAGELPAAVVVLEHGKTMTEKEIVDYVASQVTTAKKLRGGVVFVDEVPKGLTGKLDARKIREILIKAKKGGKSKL
Chain of 72 kDa type IV collagenase (P08253 whole entry): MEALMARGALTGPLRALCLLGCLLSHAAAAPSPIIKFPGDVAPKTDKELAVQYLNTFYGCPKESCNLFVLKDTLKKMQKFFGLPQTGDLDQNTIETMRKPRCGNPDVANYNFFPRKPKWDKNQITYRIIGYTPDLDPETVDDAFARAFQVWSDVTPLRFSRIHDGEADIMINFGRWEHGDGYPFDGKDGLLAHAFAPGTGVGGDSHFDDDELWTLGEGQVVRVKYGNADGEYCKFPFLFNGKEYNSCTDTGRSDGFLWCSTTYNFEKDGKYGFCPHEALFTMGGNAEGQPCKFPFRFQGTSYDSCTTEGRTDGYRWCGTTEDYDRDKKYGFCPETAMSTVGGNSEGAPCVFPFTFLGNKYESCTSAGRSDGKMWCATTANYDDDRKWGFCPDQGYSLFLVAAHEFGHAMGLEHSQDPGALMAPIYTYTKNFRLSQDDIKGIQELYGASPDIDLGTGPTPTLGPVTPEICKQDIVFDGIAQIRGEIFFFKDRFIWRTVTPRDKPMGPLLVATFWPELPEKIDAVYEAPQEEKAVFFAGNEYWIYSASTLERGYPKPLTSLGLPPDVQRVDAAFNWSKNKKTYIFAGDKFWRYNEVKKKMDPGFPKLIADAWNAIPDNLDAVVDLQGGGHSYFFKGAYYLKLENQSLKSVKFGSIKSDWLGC

`CCCCCCCCCCCCCCCC[N+](C)(C)Cc1ccc(F)cc1`: the AC50 in assay [1] was 5.28 µM (active); in assay [9], 4.51 µM (active). Also, the IC50 in [2] is 37.4 µM (active); in assay [3] it was 59.8 µM (inactive); in assay [4], 61.1 µM (active); in [5] it was 13.7 µM (inactive); in assay [8], 91.8 µM (active); in assay [10], 83.4 µM (active). Further, the EC50 in [6] was > 89.2 µM (inactive). Further, the CC50 in assay [7] is 15.7 µM (active).

With `COc1ccc(/C=C(/C#N)c2nc(-c3ccccc3C)no2)cc1O`, the IC50 in assay [11], in assay [12], in [13] and in [14] was > 99 µM (inactive) each time.

For the compound `CCOC(=O)c1sc(NC(=O)CCN2CCN(CC)CC2)c(C(=O)OCC)c1C`, the IC50 in assay [3] and in [5] was > 64.6 µM (inactive) each time.

With `Cc1[nH]c2ccccc2c1C(=O)C(=O)NCCn1ccc2ccccc21`, the IC50 in [11], in assay [12], in assay [13] and in assay [14] was > 99 µM (inactive) each time.

On to `COC(=O)c1cc(S(=O)(=O)NCCc2ccc(SC)cc2)c[nH]1`, for which the AC50 in [15] was 112 µM (active). The EC50 in assay [16] and in assay [17] was > 112 µM (not active) each time.

What is called AC50 is the concentration giving half of the maximal activity seen. What is called IC50 is the point on the concentration scale where inhibition reaches its midpoint. By EC50 is commonly meant the concentration at which the effect is half-maximal. For orientation: CC50 means the concentration giving 50% cytotoxicity.
